The numbers were not newly measured in patent EP4454482A1, “PREPARATIONS COMPRISING OLEANOL GLYCOSIDES” (Analyticon Discovery GmbH, priority 2023, dated 2024), which cites them from elsewhere.

The conditions of this data set: water (20° dH) at 20 °C; solid active agent.

SMILES strings stand for the structures.

`Nc1nc2c(ncn2COCCO)c(=O)[nH]1` [Acyclovir, 2-Amino-1,9-dihydro-9-((2-hydroxyethoxy)methyl)-6H-Purin-6-one]: the solubility in water entry was “less than 5 g/L”.
